Experimental data: PMC12332667, “Role of Structural Modifications in Peptidomimetic Compounds as Potential Antimicrobial Agents against Staphylococcus aureus and Streptococcus pyogenes: Balancing Bioavailability, Safety, and Antimicrobial Activity” (ACS Omega, 2025)
≈ marks a conversion by molar mass, not a printed value. Non-standard residues stand in square brackets, D forms with d. Residues, ends and D or L forms follow the SMILES beside them. *: point of attachment. NHPhenethyl = c1ccc(CCN*)cc1; β3hV = CC(C)[C@H](N)CC(=O)O; Cbz = O=C(OCc1ccccc1)*

Legend:
E. faecalis c.i. = test: MIC/MBC broth microdilution, E. faecalis; assay type: cell-based, Enterococcus faecalis
Method: (§1) S. aureus (ATCC 29213),S. pyogenes (ATCC 19615),Streptococcus agalactiae (ATCC 27956),Escherichia coli (ATCC 25922),Proteus vulgaris (ATCC 6896),K. pneumoniae (ATCC 700603) andP. aeruginosa (ATCC 10145) reference strains, as well asStaphylococcus cohnii, Enterococcus faecalis, Staphylococcus schleiferi, Staphylococcus intermedius and Streptococcus mutans clinical isolates, were used to test the antibacterial activity of the peptidomimetics. Bacteria were aerobically cultured for 18 h at 37 °C in plates with sterilized brain heart infusion (BHI) broth (Sigma-Aldrich, USA) media mixed with bacteriological agar (Sigma-Aldrich, USA) using the streak plate method. After 18 h, BHI broth was inoculated to 0.5 on the McFarland scale and diluted to approximately 10^5 CFU/mL. To achieve a final stock concentration of 1024 μg/mL, the peptidomimetics were dissolved in sterile water, and 5–10% of absolute ethanol or dimethyl sulfoxide (DMSO) was added. The antibacterial activities were determined by using the standard broth microdilution method of the National Committee for Clinical Laboratory Standards. The process involved adding serially diluted peptidomimetics to consecutive wells of a 96-well microtiter plate (Brand, Germany) holding media with microorganisms. The inoculated plates treated with peptides were then placed in an incubator at 37 °C for 18 h. The MIC value was determined as the lowest concentration of peptidomimetic at which there was no obvious growth (equal or more than 90% of the untreated sample). […] The lowest concentration yielding growth in no more than 3 colonies, corresponding to at least a 99.9% kill rate, was taken as MBC. Each biological replicate included control wells with the addition of water, DMSO, and ethanol as respective solvent controls. All experiments were conducted with consistent adherence to growth and sterility controls and were performed at least in technical triplicate with three biological repeats.

fibroblasts (46BR.1N) = test: LDH cytotoxicity test, fibroblasts; assay type: cell-based; settings: 48 h, 50, 100 and 150 μg/mL, vs 1% Triton X-100
Method: (§2) In our study, we used two distinct cell types: immortalized human HaCaT keratinocytes (DKFZ, Heidelberg, Germany) and a human dermal fibroblast cell line (46BR.1N). […] Cultures were maintained in a humidified atmosphere with 5% CO2 at 37 °C in 25 cm^2 culture flasks with the medium replenished every 2 days. The condition of the cells was monitored using optical microscopy.
(§3) Cell death in immortalized human keratinocytes (HaCaT) and fibroblasts (46BR.1N) was measured by quantifying the lactate dehydrogenase (LDH) activity using a commercial kit (Roche, Switzerland). Cells were seeded in 96-well plates at a density of 5000 cells per well in DMEM high glucose medium supplemented with 10% FBS. After 24 h of incubation, the medium was replaced with serum-free medium containing various concentrations of peptidomimetics (50, 100, and 150 μg/mL). After 48 h, supernatants were collected for LDH analysis. Plate readings were taken spectrophotometrically using a 450 nm wavelength. Cell death measurements were normalized to an untreated control (0%), with 1% Triton X-100 detergent used as a positive control to induce maximum LDH release, indicating maximal cytotoxicity. Statistical significance was determined with a Mann–Whitney U test with a statistical significance p ≤ 0.05. Analysis was performed with Statistica software (Krakow, Poland) and graphs were prepared in GraphPad Prism (Boston, USA).

[1] = tested on: K. pneumoniae ATCC 700603; test: MIC/MBC broth microdilution, K. pneumoniae; assay type: cell-based
Method: as §1

P. aeruginosa ATCC 10145 = test: MIC/MBC broth microdilution, P. aeruginosa; assay type: cell-based
Method: as §1

S. cohnii c.i. = test: MIC/MBC broth microdilution, S. cohnii; assay type: cell-based, Staphylococcus cohnii
Method: as §1

[2] = tested on: immortalized human keratinocytes (HaCaT); test: LDH cytotoxicity test, keratinocytes; assay type: cell-based; settings: 48 h, 50, 100 and 150 μg/mL, vs 1% Triton X-100
Method: as §2, §3

E. coli ATCC 25922 = test: MIC/MBC broth microdilution, E. coli; assay type: cell-based, Escherichia coli
Method: as §1

S. schleiferi c.i. = test: MIC/MBC broth microdilution, S. schleiferi; assay type: cell-based, Staphylococcus schleiferi
Method: as §1

P. vulgaris ATCC 6896 = test: MIC/MBC broth microdilution, P. vulgaris; assay type: cell-based, Proteus vulgaris
Method: as §1

S. aureus ATCC 43300 = test: MIC/MBC broth microdilution, S. aureus; assay type: cell-based, Staphylococcus aureus; settings: S. aureus
S. pyogenes ATCC 19615 = test: MIC/MBC broth microdilution, S. pyogenes; assay type: cell-based, Streptococcus pyogenes; settings: S. pyogenes
Method: as §1

S. agalactiae ATCC 27956 = test: MIC/MBC broth microdilution, S. agalactiae; assay type: cell-based, Streptococcus agalactiae; settings: S. agalactiae, water additive EtOH
Method: as §1

S. mutans c.i. = test: MIC/MBC broth microdilution, S. mutans; assay type: cell-based, Streptococcus mutans
Method: as §1

[3] = tested on: human dermal fibroblast cell line (46BR.1N); test: XTT cell proliferation assay, fibroblasts; assay type: cell-based; settings: for effect on proliferation, in words: XTT, 48 and 72 h, 0.01–150 μg/mL
Method: (§4) In our study, we used two distinct cell types: immortalized human HaCaT keratinocytes (DKFZ, Heidelberg, Germany) and a human dermal fibroblast cell line (46BR.1N). […] Cultures were maintained in a humidified atmosphere with 5% CO2 at 37 °C in 25 cm^2 culture flasks with the medium replenished every 2 days. The condition of the cells was monitored using optical microscopy. […] After 24 h of incubation, the medium was replaced with serum-free HG-DMEM containing appropriate concentrations of peptidomimetics. All solutions used in the experiments were prepared with double-distilled water or with the addition of ethanol under sterile conditions to ensure compatibility with the conditions of the bacteriological assay. For 72 h of incubation, half of the medium was replaced with fresh medium after 48 h, and cells were stimulated with peptides for a second time. The XTT cell proliferation assay was then performed according to the manufacturer’s instructions (Roche, Switzerland). Cells were treated with the peptides for either 48 or 72 h, followed by the addition of XTT reagent, and the plates were then incubated at 37 °C in a 5% CO2 environment for 4 h. Plate readings were taken using a standard plate reader at a wavelength of 490 nm (OD = 490 nm). […] Statistical significance was determined with a Mann–Whitney U test with statistical significance p ≤ 0.05. Analysis was performed with Statistica software, and graphs were prepared in GraphPad Prism.

[4] = tested on: immortalized human HaCaT keratinocytes; test: XTT cell proliferation assay, keratinocytes; assay type: cell-based; settings: for effect on proliferation, in words: XTT, 48 and 72 h, 0.01–150 μg/mL
Method: as §4

[5] = up to 150 μg/mL, A-193 and A-179 after 48 h

Q: For `CC(C)C[C@H](NC(=O)[C@H](CCCNC(=N)N)NC(=O)OCc1ccccc1)C(=O)N[C@H](CC(=O)NCCc1ccccc1)C(C)C` [Compound A-152] (Cbz-Arg-Leu-[β3hV]-NHPhenethyl), which MBC (E. faecalis c.i.; water additive DMSO) is on record?
A: Its MBC is > 512 µg/mL.

Q: And the MIC (E. faecalis c.i.; water additive DMSO)?
A: Its MIC is 512 µg/mL (≈ 803 µM).

Q: And the MBC (E. faecalis c.i.; water additive EtOH)?
A: Its MBC is 512 µg/mL (≈ 803 µM).

Q: What about the MIC (E. faecalis c.i.; water additive EtOH) of the same molecule?
A: Its MIC is 512 µg/mL (≈ 803 µM).

Q: What about the “cytotoxicity (LDH)” value (fibroblasts (46BR.1N)) of the same molecule?
A: Its value is ≤ 50%.

Q: What about the MIC ([1]; water additive DMSO) of the same molecule?
A: The MIC was > 512 µg/mL.

Q: And the MIC ([1]; water additive EtOH)?
A: Its MIC is > 512 µg/mL.

Q: What about the MIC (P. aeruginosa ATCC 10145; water additive DMSO) of the same molecule?
A: Its MIC is > 512 µg/mL.

Q: And the MIC (P. aeruginosa ATCC 10145; water additive EtOH)?
A: Its MIC is > 512 µg/mL.

Q: What about the MBC (S. cohnii c.i.; water additive DMSO) of the same molecule?
A: Its MBC is 512 µg/mL (≈ 803 µM).

Q: And the MBC (S. cohnii c.i.; water additive EtOH)?
A: Its MBC is 512 µg/mL (≈ 803 µM).

Q: And the “cytotoxicity (LDH)” value [2]?
A: The value was ≤ 50%.

Q: What about the MIC (E. coli ATCC 25922; water additive DMSO) of the same molecule?
A: The MIC was > 512 µg/mL.

Q: What about the MIC (E. coli ATCC 25922; water additive EtOH) of the same molecule?
A: The MIC was > 512 µg/mL.

Q: And the MIC (S. schleiferi c.i.; water additive DMSO)?
A: Its MIC is > 512 µg/mL.

Q: And the MIC (S. schleiferi c.i.; water additive EtOH)?
A: The MIC was > 512 µg/mL.

Q: And the MIC (P. vulgaris ATCC 6896; water additive DMSO)?
A: Its MIC is > 512 µg/mL.

Q: And the MIC (P. vulgaris ATCC 6896; water additive EtOH)?
A: The MIC was > 512 µg/mL.

Q: And the MBC (S. aureus ATCC 43300; H2O)?
A: The MBC was 256 µg/mL (≈ 401 µM).

Q: And the MBC (S. aureus ATCC 43300; water additive DMSO)?
A: Its MBC is 512 µg/mL (≈ 803 µM).

Q: And the MIC (S. aureus ATCC 43300; water additive DMSO)?
A: The MIC was 512 µg/mL (≈ 803 µM).

Q: And the MBC (S. pyogenes ATCC 19615; H2O)?
A: The MBC was 256 µg/mL (≈ 401 µM).

Q: And the MBC (S. pyogenes ATCC 19615; water additive DMSO)?
A: The MBC was 256 µg/mL (≈ 401 µM).

Q: What about the MBC (S. pyogenes ATCC 19615; water additive EtOH) of the same molecule?
A: The MBC was 126 µg/mL (≈ 198 µM).

Q: And the MBC (S. agalactiae ATCC 27956)?
A: The MBC was 256 µg/mL (≈ 401 µM).

Q: And the MIC (S. mutans c.i.; water additive DMSO)?
A: Its MIC is > 512 µg/mL.

Q: And the MIC (S. mutans c.i.; water additive EtOH)?
A: Its MIC is > 512 µg/mL.

Q: And the “effect on proliferation, in words” value [3]?
A: Its value is “pro-proliferating effect at lower concentrations followed by an antiproliferative effect at higher concentrations”.

Q: What about the “effect on proliferation, in words” value [4] of the same molecule?
A: The value was “pro-proliferating effect at lower concentrations followed by an antiproliferative effect at higher concentrations”.

Q: What does the source list for `CC(C)[C@@H](CNC(=O)C(=Cc1ccccc1)c1ccccc1)NC(=O)[C@H](Cc1c[nH]cn1)NC(=O)[C@H](CCCNC(=N)N)NC(=O)OCc1ccccc1` [Compound A-176]?
A: MBC (E. faecalis c.i.; H2O): 512 µg/mL (≈ 696 µM); MIC (E. faecalis c.i.; H2O): 512 µg/mL (≈ 696 µM); MIC (E. faecalis c.i.; water additive DMSO): > 512 µg/mL; MBC (E. faecalis c.i.; water additive EtOH): 512 µg/mL (≈ 696 µM); MIC (E. faecalis c.i.; water additive EtOH): 256 µg/mL (≈ 348 µM); MIC ([1]; H2O): > 512 µg/mL; MIC ([1]; water additive DMSO): > 512 µg/mL; MIC ([1]; water additive EtOH): > 512 µg/mL; MIC (P. aeruginosa ATCC 10145; H2O): 256 µg/mL (≈ 348 µM); MBC (P. aeruginosa ATCC 10145; water additive DMSO): 256 µg/mL (≈ 348 µM); MIC (P. aeruginosa ATCC 10145; water additive DMSO): 256 µg/mL (≈ 348 µM); MBC (P. aeruginosa ATCC 10145; water additive EtOH): 256 µg/mL (≈ 348 µM); MIC (P. aeruginosa ATCC 10145; water additive EtOH): 256 µg/mL (≈ 348 µM); cytotoxicity (LDH) [2]: exceeding 50%; MBC (E. coli ATCC 25922; H2O): 256 µg/mL (≈ 348 µM); MIC (E. coli ATCC 25922; H2O): 256 µg/mL (≈ 348 µM); MIC (E. coli ATCC 25922; water additive DMSO): > 512 µg/mL; MIC (E. coli ATCC 25922; water additive EtOH): 512 µg/mL (≈ 696 µM); MIC (S. schleiferi c.i.; H2O): 16 µg/mL (≈ 21.7 µM); MBC (S. schleiferi c.i.; water additive EtOH): 32 µg/mL (≈ 43.5 µM); MIC (S. schleiferi c.i.; water additive EtOH): 16 µg/mL (≈ 21.7 µM); MIC (P. vulgaris ATCC 6896; H2O): > 512 µg/mL; MIC (P. vulgaris ATCC 6896; water additive DMSO): > 512 µg/mL; MIC (P. vulgaris ATCC 6896; water additive EtOH): > 512 µg/mL; MIC (S. aureus ATCC 43300; H2O): 32 µg/mL (≈ 43.5 µM); MIC (S. aureus ATCC 43300; water additive DMSO): 32 µg/mL (≈ 43.5 µM); MIC (S. aureus ATCC 43300; water additive EtOH): 32 µg/mL (≈ 43.5 µM); MBC (S. pyogenes ATCC 19615; H2O): 32 µg/mL (≈ 43.5 µM); MIC (S. pyogenes ATCC 19615; H2O): 16 µg/mL (≈ 21.7 µM); MIC (S. pyogenes ATCC 19615; water additive DMSO): 16 µg/mL (≈ 21.7 µM); MBC (S. pyogenes ATCC 19615; water additive EtOH): 32 µg/mL (≈ 43.5 µM); MIC (S. pyogenes ATCC 19615; water additive EtOH): 16 µg/mL (≈ 21.7 µM); MIC (S. mutans c.i.; H2O): 32 µg/mL (≈ 43.5 µM); MIC (S. mutans c.i.; water additive EtOH): 32 µg/mL (≈ 43.5 µM); effect on proliferation, in words [3]: negative impact; antiproliferative effect (decrease vs control) [3, 5]: up to 50%; effect on proliferation, in words [4]: negative impact; antiproliferative effect (decrease vs control) [4, 5]: up to 50%
